# From patent publication US9408853B2, “Iridium/rhodium anti-cancer compounds” (University of Warwick, priority 2010, dated 2016)
# Values joined by “and” are separate entries in the source; they are usually repeats but may differ in a detail not shown here. Identical values can stand only once.
# Legend:
# [1] = Kinetics of hydrolysis followed by 1H NMR; type: physicochemical; settings: for k (hydrolysis): 0.2 mM, 5% MeOD-d4/95% D2O, pH* 3
# Protocol: Kinetics for Hydrolysis. Although complexes ZL01-ZL04, ZL07, ZL38 and ZL43 hydrolyzed too rapidly to monitor by ^1H NMR, The kinetics of hydrolysis for complexes ZL25, ZL33, ZL37 and ZL54 were followed by ^1H NMR at different temperatures. For this, solutions of the complexes with a final concentration of 0.2 mM in 5% MeOD-d4/95% D2O (v/v) were prepared by dissolution of the complexes in MeOD-d4 followed by rapid dilution using D2O with a pH* of about 3 (acidified with HClO4), so that the aqua ligand was not deprotonated. ^1H NMR spectra were taken after various time intervals. The rates of hydrolysis were determined by fitting plots of concentrations (determined from ^1H NMR peak integrals) versus time to a pseudo first-order equation using ORIGIN version 7.0. The Arrhenius activation energy (Ea), activation enthalpies (ΔH^¢), and activation entropy (ΔS^‡) for compounds ZL25, ZL33, ZL37 and ZL54 were determined from the slopes of the Arrhenius and intercepts of Eyring plots.
# The rates of hydrolysis of compounds ZL01-ZL04, ZL07, ZL25, ZL33, ZL37, ZL38, ZL43 and ZL54 in a 5% MeOD-d4/95% D2O were monitored by ^1H NMR at different temperature from 278 to 298 K by the observation of new peaks over time due to aqua adduct formation. Five percent MeOD was used to improve solubility, and acidic conditions (D2O, pH* 3) were used to prevent the deprotonation of the aqua complex as a secondary reaction. […] The percentage of aqua peak formation for ZL25, ZL33, ZL37 and ZL54 was plotted against time and was fitted to pseudofirst order kinetics (FIG. 3), and their halflife times were calculated (Table 1). The Arrhenius activation energy (Ea), activation enthalpy (ΔH^¢), and activation entropy (ΔS^‡) of compound ZL25, ZL33, ZL37 and ZL54 are listed in Table 4. The large negative ΔS^‡value for compound ZL54 is notable. The extent of hydrolysis at equilibrium is medium for all compounds, ranged from 30% to 60%.
# [2] = Aqua adduct formation of ZL33 at chloride levels of nucleus, cytoplasm and plasma (1H NMR); type: physicochemical; settings: 1 mM in D2O, 310 K
# Protocol: The effects of chloride concentrations typical of blood plasma (100 mM), cell cytoplasm (22.7 mM), and cell nucleus (4 mM) on the aqueous chemistry of ZL33 was investigated. ^1H NMR spectra of ZL33 (1 mM) were recorded within 10 min of sample preparation and after incubation at 310 K for 24 h (FIG. 4). […] (pH* 6.52) or in 22.7 mM [Cl] (pH* 6.72), and only 5% of ZL33A at 4 mM [Cl] (pH* 6.89) after 10 min. No significant change was observed after 24 h, see Table 2.
# 9-ethylguanine (9-EtG) = assay: Interactions with nucleobases: 9-EtG adduct formation (1H NMR); type: binding; settings: 1 mM, 1 mol equiv 9-EtG (ZL33A: 2 mol equiv), D2O, 310 K
# Procedure, shortened: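 Complexes (1 mM, equilibrium mixture with their aqua adducts) in 5% MeOD-d4/95% D2O mixed with 1–2 mol equiv 9-EtG in D2O. Adduct formation followed by 1H NMR at 310 K over various time intervals.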
# A549 cancer cell line = assay: Cytotoxicity, MTT assay (Brabec group); type: cell-based
# Protocol: (§1) The cytotoxicity test of ZL07, ZL33, ZL38 and ZL54 against A2780, SW480, A549 and CH1 cell lines was performed by Viktor Brabec group (Institute of Biophysics, Academy of Sciences of the Czech Republic). After plating, the cells were treated with ZL07, ZL33, ZL38 and ZL54. After 72h of incubation 10 μl of MTT (2.5 mg/ml; CALBIOCHEM) was added to each well and incubated for 4 h in culture conditions. At the end of the incubation period the medium was removed and the formazan product was dissolved in 100 μl DMSO. The cell viability was evaluated by measurement of the absorbance at 570 nm, using an Absorbance Reader SUNRICE TECAN SCHOELLER. […] All experiments were made in quadruplicate.
# CH1 cancer cell line = assay: Cytotoxicity, MTT assay (Brabec group); type: cell-based
# Protocol: as §1
# SW480 cancer cell line = assay: Cytotoxicity, MTT assay (Brabec group); type: cell-based
# Protocol: as §1
# [3] = highest test concentration 130 μM
compound,measurement,setting,value
"Cc1c(C)c(-c2ccccc2)[c-](C)c1C.F[P-](F)(F)(F)(F)F.[Cl-].[Ir+3].c1cnc2c(c1)ccc1cccnc12 (stereo not shown) [ZL33, [(η^5-C5Me4C6H5)Ir(phen)Cl]PF6]",k (hydrolysis),[1]; 278 K,0.033 min⁻¹
same,k (hydrolysis),[1]; 283 K,0.0693 min⁻¹
same,k (hydrolysis),[1]; 288 K,0.1264 min⁻¹
same,Ea (Arrhenius activation energy of hydrolysis),[1]; from Arrhenius plot,20.5 kcal/mol
same,ΔH^‡ (activation enthalpy of hydrolysis),[1]; from Eyring plot,20.06 kcal/mol
same,ΔS^‡ (activation entropy of hydrolysis),[1]; from Eyring plot,29.3 J K^−1mol^−1
same,% aqua adduct of ZL33 (ZL33A),"[2]; 4 mM NaCl, t = 10 min",5%
same,% aqua adduct of ZL33 (ZL33A),"[2]; 4 mM NaCl, t = 24 h",5%
same,% aqua adduct of ZL33 (ZL33A),"[2]; 22.7 mM NaCl, t = 24 h",0%
same,% aqua adduct of ZL33 (ZL33A),"[2]; 100 mM NaCl, t = 24 h",0%
same,"Reaction with 9-EtG, extent of adduct formation",9-ethylguanine (9-EtG); 10 min,15% and 15.5%
same,"Reaction with 9-EtG, extent of adduct formation",9-ethylguanine (9-EtG); 24 h,42.2%
same,IC50,"A549 cancer cell line; 72 h incubation, MTT",11500 ± 2400 nM
same,cytotoxicity towards A549 (in words),A549 cancer cell line; [3],promising cytotoxicity
same,IC50,"CH1 cancer cell line; 72 h incubation, MTT",1320 ± 300 nM
same,cytotoxicity towards CH1 (in words),CH1 cancer cell line; [3],promising cytotoxicity
same,IC50,"SW480 cancer cell line; 72 h incubation, MTT",1410 ± 200 nM
same,times more active than cisplatin,SW480 cancer cell line; SW480,ca. 6.5 times
same,cytotoxicity towards SW480 (in words),SW480 cancer cell line; [3],promising cytotoxicity
